Laboratory results: ChEMBL document CHEMBL5030557, “Tandem Repeat of a Short Human Chemerin-Derived Peptide and Its Nontoxic d-Lysine-Containing Enantiomer Display Broad-Spectrum Antimicrobial and Antitubercular Activities” (J Med Chem, 2021)
In brackets after ≈: the same amount, converted by molar mass. Activity calls are given as the source filed them. The rule behind the calls is not given here.

Legend:
[1] = tested on: Pseudomonas aeruginosa; test: Anti-infective activity in Pseudomonas aeruginosa infected BALB/c mouse kidney assessed as reduction in bacterial growth at 10 mg/kg, ip after 18 hrs; assay type: functional, organism-based
[2] = Retention time of the compound analysed by RP-HPLC analysis; assay type: physicochemical
[3] = tested on: Cell membrane; test: Disruption of plasma membrane in Staphylococcus aureus ATCC 25923 at 10 uM by SYTOX-green uptake assay; assay type: cell membranes; conditions: TDE = time-dependent effect
[4] = tested on: Pseudomonas aeruginosa; test: Anti-infective activity in Pseudomonas aeruginosa infected BALB/c mouse spleen assessed as reduction in bacterial growth at 10 mg/kg, ip after 18 hrs; assay type: functional, organism-based
[5] = tested on: Staphylococcus aureus; test: Antimicrobial activity against multidrug-resistant Staphylococcus aureus ATCC BAA-44 assessed as inhibition of bacterial growth by broth dilution method; assay type: functional
[6] = tested on: Escherichia coli; test: Bactericidal activity against Escherichia coli ATCC 25922 assessed as bacterial killing at 5 times MIC measured after 60 min; assay type: functional, organism-based
[7] = Acute toxicity in BALB/c mouse assessed as survival at 20 mg/kg administered intravenously measured after 7 days; assay type: organism-based; conditions: in vivo, iv, 168 h, time 7 day
[8] = tested on: Escherichia coli; test: Antibacterial activity against Escherichia coli ATCC 25922 in presence of 10 percent fresh human serum measured after 1 hr; assay type: functional
[9] = tested on: Pseudomonas aeruginosa; test: Antibacterial activity against Pseudomonas aeruginosa BAA 427 assessed as resistance development by measuring fold change in MIC after 30 passages with serially diluted peptides; assay type: functional
[10] = tested on: Mycolicibacterium smegmatis; test: Anti-mycobacterial activity against Mycobacterium smegmatis assessed as reduction in CFU at 3 times MIC after 24 hrs; assay type: functional, organism-based
[11] = tested on: THP-1; test: Cytotoxicity against human monocyte THP-1 cell line assessed as cell viability measured for 24 hrs using ELISA plate reader; assay type: cell-based; conditions: thp-1, 24 h
[12] = tested on: Escherichia coli; test: Antibacterial activity against Escherichia coli ATCC 25922 in presence of temperature ranging from 4 to 90 degC measured after 1 hr; assay type: functional
[13] = Permeability of the compound in PC/PG lipid vesicles by spectrofluorometry; assay type: ADME
[14] = tested on: Pseudomonas aeruginosa; test: Anti-infective activity in Pseudomonas aeruginosa infected BALB/c mouse spleen assessed as reduction in bacterial growth at 10 mg/kg, ip after 12 hrs; assay type: functional, organism-based
[15] = tested on: Mycobacterium tuberculosis; test: Anti-mycobacterial activity against Mycobacterium tuberculosis H37Ra assessed as growth inhibition at 16.13 uM relative to control; assay type: functional
[16] = tested on: Cell membrane; test: Inner membrane permeability of the compound in Escherichia coli ATCC 25922 by ONPG assay; assay type: ADME, subcellular
[17] = tested on: Mycolicibacterium smegmatis; test: Anti-mycobacterial activity against Mycobacterium smegmatis infected in human THP-1 cells assessed as reduction in CFU at 24.19 uM after 24 hrs; assay type: functional
[18] = tested on: Cell membrane; test: Induction of membrane damage in Escherichia coli assessed as disruption of membrane integrity at 10 uM incubated for 30 min by propidium iodide staining based assay
[19] = tested on: Escherichia coli; test: Antibacterial activity against Escherichia coli ATCC 25922 in presence of 150 mM NaCl measured after 1 hr; assay type: functional
[20] = Hemolytic activity in human RBC measured after 40 mins; assay type: ADME, tissue-based, Erythrocyte; conditions: red blood cells (RBC)
[21] = tested on: Staphylococcus aureus; test: Antimicrobial activity against Staphylococcus aureus ATCC 25923 assessed as inhibition of bacterial growth by broth dilution method; assay type: functional
[22] = tested on: Staphylococcus aureus; test: Antimicrobial activity against methicilin- resistant Staphylococcus aureus ATCC 33591 assessed as inhibition of bacterial growth by broth dilution method; assay type: functional
[23] = tested on: Pseudomonas aeruginosa; test: Antimicrobial activity against Pseudomonas aeruginosa ATCC BAA-427 assessed as inhibition of bacterial growth by broth dilution method; assay type: functional
[24] = Stability of the compound in human serum assessed as intact compound remaining at 2 mg/ml measured after 60 mins by […] analysis; assay type: ADME, cell-free; conditions: read-out: Stability
[25] = tested on: Pseudomonas aeruginosa; test: Anti-infective activity in Pseudomonas aeruginosa infected BALB/c mouse liver assessed as reduction in bacterial growth at 10 mg/kg, ip after 12 hrs; assay type: functional, organism-based
[26] = tested on: Bacillus subtilis; test: Antimicrobial activity against Bacillus subtilis ATCC 6633 assessed as inhibition of bacterial growth by broth dilution method; assay type: functional
[27] = Acute toxicity in BALB/c mouse assessed as change in body weight at 20 mg/kg administered intravenously measured after 7 days; assay type: organism-based; conditions: in vivo, iv, 168 h, time 7 day
[28] = tested on: Klebsiella pneumoniae; test: Antimicrobial activity against Klebsiella pneumoniae ATCC 27736 assessed as inhibition of bacterial growth by broth dilution method; assay type: functional
[29] = tested on: Mycolicibacterium smegmatis; test: Anti-mycobacterial activity against Mycobacterium smegmatis assessed as reduction in CFU at 3 times MIC after 12 hrs; assay type: functional, organism-based
[30] = tested on: Pseudomonas aeruginosa; test: Anti-infective activity in Pseudomonas aeruginosa infected BALB/c mouse kidney assessed as reduction in bacterial growth at 10 mg/kg, ip after 12 hrs; assay type: functional, organism-based
[31] = tested on: Escherichia coli; test: Antimicrobial activity against Escherichia coli ATCC 25922 assessed as inhibition of bacterial growth by broth dilution method; assay type: functional
[32] = tested on: Escherichia coli; test: Antibacterial activity against Escherichia coli ATCC 25922 in presence of 4.5 mM KCl measured after 1 hr; assay type: functional
[33] = tested on: Pseudomonas aeruginosa; test: Antibacterial activity against Pseudomonas aeruginosa infected in Balb/c mouse stomach assessed as animal survival at 5 mg/kg, ip after 7 days; assay type: functional; conditions: 168 h, time 7 day
[34] = tested on: Pseudomonas aeruginosa; test: Anti-infective activity in Pseudomonas aeruginosa infected BALB/c mouse liver assessed as reduction in bacterial growth at 10 mg/kg, ip after 18 hrs; assay type: functional, organism-based
[35] = tested on: Mycolicibacterium smegmatis; test: Anti-mycobacterial activity against Mycobacterium smegmatis assessed as growth inhibition at 16.13 uM relative to control; assay type: functional
[36] = Hemolytic activity in human RBC at 150 uM measured after 40 min by hemolysis assay relative to control; assay type: ADME, tissue-based, Erythrocyte; conditions: red blood cells (RBC), read-out: Activity
[37] = tested on: Mycolicibacterium smegmatis; test: Anti-mycobacterial activity against Mycobacterium smegmatis infected in human THP-1 cells assessed as reduction in CFU at 40.13 uM after 24 hrs; assay type: functional
[38] = tested on: Lipid bilayer; test: Induction of membrane depolarization in mammalian mimetic PC/Chol vesicles assessed as membrane permeabilization
[39] = tested on: Pseudomonas aeruginosa; test: Antibacterial activity against Pseudomonas aeruginosa infected in Balb/c mouse stomach assessed as animal survival at 10 mg/kg, ip after 7 days; assay type: functional; conditions: 168 h, time 7 day
[40] = Disruption of membrane integrity in human RBC cells assessed as membrane damage at 150 uM incubated for 15 min by Alexa fluor-annexin V staining based assay (reference value: 0%); assay type: functional, Red blood cell; conditions: 0.25 h

CC(C)C[C@H](NC(=O)[C@H](CCCNC(=N)N)NC(=O)CNC(=O)[C@H](CC(C)C)NC(=O)[C@@H](NC(=O)[C@@H](CCCCN)NC(=O)[C@@H](NC(=O)[C@H](CC(C)C)NC(=O)[C@H](CCCNC(=N)N)NC(=O)CNC(=O)[C@H](CC(C)C)NC(=O)[C@@H](NC(=O)[C@@H](N)CCCCN)C(C)C)C(C)C)C(C)C)C(=O)N[C@H](C(N)=O)C(C)C
Activity [1]: Active
Retention_time [2]: 14.6 min
Activity [3]: Tde
Activity [4]: Active
MIC [5]: 2 µM (≈ 3.1 µg/mL)
Activity [6]: Active
Activity [7]: Toxic
MIC [8]: 2 µM
fold change (FC) [9]: 2
Activity [10]: Active
Activity [11]: Non-Toxic
MIC [12]: 2 µM
Activity [13]: Active
Activity [14]: Active
inhibition at 16.13 µM [15]: 95%
Activity [16]: Active
inhibition at 24.19 µM [17]: 40%
Activity [18]: Active
MIC [19]: 4 µM
HC50 at 40 min [20]: > 2 mM
MIC [21]: 1 µM (≈ 1.55 µg/mL)
MIC [22]: 2 µM (≈ 3.1 µg/mL)
MIC [23]: 4 µM (≈ 6.2 µg/mL)
remaining at 1 h, 2 mg/ml [24]: 88%
Activity [25]: Active
MIC [26]: 2 µM (≈ 3.1 µg/mL)
Activity [27]: Non-Toxic
MIC [28]: 4 µM (≈ 6.2 µg/mL)
Activity [29]: Active
Activity [30]: Active
MIC [31]: 1 µM (≈ 1.55 µg/mL)
MIC [32]: 8 µM
survival at 5 mg/kg [33]: 40%
Activity [34]: Active
inhibition at 16.13 µM [35]: 95%
hemolysis at 40 min, 150 µM [36]: 0%
inhibition at 40.13 µM [37]: 80%
Activity [38]: inactive
survival at 10 mg/kg [39]: 80%
Activity [40]: 2.1%
